Target: T1, Steryl-sulfatase (Homo sapiens, UniProt P08842)
T1 sequence (P08842 whole entry): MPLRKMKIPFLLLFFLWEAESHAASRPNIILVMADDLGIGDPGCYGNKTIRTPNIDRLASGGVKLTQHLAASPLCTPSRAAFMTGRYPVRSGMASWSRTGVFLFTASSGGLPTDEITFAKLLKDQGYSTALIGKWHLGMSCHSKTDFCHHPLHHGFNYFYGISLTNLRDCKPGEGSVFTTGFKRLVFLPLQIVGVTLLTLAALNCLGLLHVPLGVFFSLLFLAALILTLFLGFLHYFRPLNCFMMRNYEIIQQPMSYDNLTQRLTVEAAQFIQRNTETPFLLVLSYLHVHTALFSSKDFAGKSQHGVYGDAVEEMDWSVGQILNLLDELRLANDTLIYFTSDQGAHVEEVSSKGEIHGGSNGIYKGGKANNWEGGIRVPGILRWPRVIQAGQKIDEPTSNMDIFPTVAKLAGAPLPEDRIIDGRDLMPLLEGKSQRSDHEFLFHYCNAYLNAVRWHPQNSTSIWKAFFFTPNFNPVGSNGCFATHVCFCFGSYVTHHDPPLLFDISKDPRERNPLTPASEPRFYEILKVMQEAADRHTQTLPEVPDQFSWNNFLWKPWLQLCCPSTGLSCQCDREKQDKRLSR
Assay: Inhibitory activity against estrone sulfatase enzyme

SMILES	IC50
NS(=O)(=O)Oc1ccc2c(c1)CCCC2	1000 nM
CCCCCCCCCCCCCC(=O)NCCc1ccc(OS(N)(=O)=O)cc1	55.8 nM
C[C@]12CC[C@@H]3c4ccc(OS(N)(=O)=O)cc4CCC3[C@@H]1CCC2=O (single isomer, unassigned) [EMATE]	0.065 nM
